Series [1] concerns Mycobacterium tuberculosis (strain H37Ra), cyt bd. The conditions noted are these: Mtb H37Ra.
The test system of series [2] is M. tuberculosis (strain H37Rv and H37Ra). Briefly: Time kill kinetics assay (Test 3). It counts as cell-based, Mycobacterium tuberculosis. The conditions noted are these: compound alone 12 μg/ml. On the procedure:
Time Kill Kinetics Assays: Test 3
Bactericidal or bacteriostatic activity of the compounds can be determined in a time kill kinetic assay using the broth dilution method. In this assay, the starting inoculum of M. tuberculosis (strain H37Rv and H37Ra) is 10^6 CFU/ml in Middlebrook (1×) 7H9 broth. The test compounds (cyt bd inhibitors) are tested in combination with a cyt bc inhibitor (for example Q203 or Compound X) at the concentration ranging from 10-30 μM to 0.9-0.3 μM respectively. Tubes receiving no antibacterial agent constitute the culture growth control. The tubes containing the microorganism and the test compounds are incubated at 37° C. After 0, 1, 4, 7, 14 and 21 days of incubation samples are removed for determination of viable counts by serial dilution (10^0 to 10^−6) in Middlebrook 7H9 medium and plating (100 μl) on Middlebrook 7H11 agar. The plates are incubated at 37° C. for 21 days and the number of colonies are determined. Killing curves can be constructed by plotting the log10 CFU per ml versus time. A bactericidal effect of a cytochrome be and cytochrome bd inhibitor (either alone or in combination) is commonly defined as 2-log10 decrease (decrease in CFU per ml) compared to Day 0. The potential carryover effect of the drugs is limited by using 0.4% charcoal in the agar plates, and by serial dilutions and counting the colonies at highest dilution possible used for plating.
Compounds of the examples are/were tested in Test 3 (the kill kinetics) described above, obtaining results expressed as a log reduction in CFUs per ml as compared to Day 0.

The test system of the next series is rNaCh. Briefly: CVS / cardio tox rNaCh. Type of series: binding, rat. The conditions noted are these: CVS; read-out: rNaCh IC50.
The subject of a further series is h-cardiomyocytes. Put plainly: CTCM Ca2+ transient h-cardiomyocytes HTS. The conditions noted are these: 0.1 μm, 0.2 μm, 0.5 μm, 1 μm, 2.5 μm, 5 μm.
Series [3] deals with Mitochondrial toxicity (Glu/Gal). Put plainly: Mitochondrial toxicity (Glu/Gal) assay. Type of series: cell-based. Further details: key to Score: “negative” means that in the test, it was found to have low mitotoxicity (and hence no mitotoxicity alerts); “positive” means that there were some mitotoxicity alerts; “inconclusive” means that no accurate conclusion could be drawn. The conditions noted are these: for Δ IC50,glu/IC50,gal: ratio glu/gal.

A short description of series [4]: GSH and CN adducts (reactive metabolite formation).
A further series addresses hERG (Homo sapiens, UniProt Q12809). Put plainly: CVS / cardio tox hERG (DOF). Type of series: binding. The conditions noted are these: CVS; read-out: hERG IC50.
The test system of series [5] is Mycobacterium tuberculosis strain H37Rv ΔctaE-ΔqcrCAB. Briefly: microbe, parasite or virus in culture. The conditions noted are these: 240 h. Type of series: cell-based.
A further series relates to rCaCh. Briefly: CVS / cardio tox rCaCh. Type of series: binding, rat. The conditions noted are these: CVS.
Setting [6] is: Log Day 0 5.56 (Q203 experiment).

Several values for one entry are separate records, joined by “and”; a condition that tells them apart may be missing. Equal entries are not always repeated. Where two headings read alike, the source gives them in different places.

We go through 1 compound from patent US20220389008A1, “4-QUINOLINONE ANTIBACTERIAL COMPOUNDS” (Janssen Sciences Ireland Unlimited Company, priority 2019, published 2022).

By IC50 is commonly meant the concentration needed to halve the response being measured. One may read the half-life as how long it takes for the measured level to halve.

hERG, sequence (Q12809 whole entry): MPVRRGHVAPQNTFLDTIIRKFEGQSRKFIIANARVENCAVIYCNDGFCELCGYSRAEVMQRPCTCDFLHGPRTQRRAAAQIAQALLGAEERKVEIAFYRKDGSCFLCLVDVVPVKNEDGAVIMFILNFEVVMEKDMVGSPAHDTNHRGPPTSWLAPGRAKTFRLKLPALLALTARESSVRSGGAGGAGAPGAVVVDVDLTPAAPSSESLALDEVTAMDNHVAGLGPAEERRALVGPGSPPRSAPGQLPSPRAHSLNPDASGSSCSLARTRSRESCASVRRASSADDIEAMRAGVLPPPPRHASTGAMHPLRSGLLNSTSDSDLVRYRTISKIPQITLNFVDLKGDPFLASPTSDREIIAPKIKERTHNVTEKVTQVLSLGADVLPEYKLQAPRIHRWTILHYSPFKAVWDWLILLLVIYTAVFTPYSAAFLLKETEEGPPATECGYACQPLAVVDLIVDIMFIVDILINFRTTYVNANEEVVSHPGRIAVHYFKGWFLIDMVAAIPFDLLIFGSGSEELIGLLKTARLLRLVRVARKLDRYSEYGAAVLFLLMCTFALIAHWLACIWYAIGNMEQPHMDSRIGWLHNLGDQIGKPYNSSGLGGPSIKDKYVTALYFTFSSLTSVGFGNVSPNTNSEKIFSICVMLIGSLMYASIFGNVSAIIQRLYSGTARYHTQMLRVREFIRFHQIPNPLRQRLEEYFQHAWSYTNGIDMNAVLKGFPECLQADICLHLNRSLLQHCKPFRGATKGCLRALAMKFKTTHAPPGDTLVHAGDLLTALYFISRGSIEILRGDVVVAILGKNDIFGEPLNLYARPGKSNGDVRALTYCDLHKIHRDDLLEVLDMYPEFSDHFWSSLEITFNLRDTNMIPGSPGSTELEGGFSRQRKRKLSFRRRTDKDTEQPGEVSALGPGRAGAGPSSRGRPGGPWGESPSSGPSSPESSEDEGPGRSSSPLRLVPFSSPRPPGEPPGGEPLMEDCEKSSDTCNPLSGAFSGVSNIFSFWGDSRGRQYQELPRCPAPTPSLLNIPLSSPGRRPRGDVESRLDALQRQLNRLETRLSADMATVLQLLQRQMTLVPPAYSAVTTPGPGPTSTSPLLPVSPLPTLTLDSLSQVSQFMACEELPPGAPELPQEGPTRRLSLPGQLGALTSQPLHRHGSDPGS

As to `Cc1c(-c2nc3ccc(-c4ccc(OC(F)(F)F)cc4)cn3n2)[nH]c2ccccc2c1=O` [Compound 6], the “(i) % OCR after cyt bd inhibitor” value in series [1] (test compound 10 μM added after Compound X 0.9 μM) is reported as 39.7%. Further, the “(ii) % OCR after cccp” value in series [1] (test compound 10 μM after Compound X 0.9 μM, then CCCP 1 μM) came out at 58.4%. The “Log Day 21” value in [2] (setting [6]) is given as 8.64 log CFUs per ml; in [2] (Log Day 0 6.66) it was 9.06 log CFUs per ml. Further, the “Log Day 21-Log Day 0” value in [2] (setting [6]) is recorded as “+3.08 log CFUs per ml”; in series [2] (Log Day 0 6.66), “+2.40 log CFUs per ml”. In addition, the “AMES II b (+/−rat S9)” value in “AMES II b (+/−rat S9)” is listed as “negative”. The IC50 is more than 10 µM in the series with rNaCh; 21.9 µM and 22.1 µM in [3] (galactose medium, read-out: IC50, gal); 15.6 µM and 26.5 µM in series [3] (glucose medium, read-out: IC50, glu); more than 10 µM at hERG; 0.653 µM in series [5]; more than 10 µM in the series on rCaCh. Further, the “CTCM Ca2+ transient h-cardiomyocytes HTS” value in the series on h-cardiomyocytes was “all no”. In series [3] (mitotoxicity score), the Score entry was “negative”. For the same compound, the “Δ IC50,glu/IC50,gal” value in [3] was 1.2; in [3] (listed as 6 (repeat)), 1.4. The “GSH and CN adducts” value in [4] is “negative”. This compound also registered a CI in the series “PK parameters in mice” (mice) of 1.69 mL/min/kg. For the same compound, the Fab % in the series “PK parameters in mice” (mice) is 64%. In “PK parameters in mice” (mouse, in vivo), this compound gave a half-life of 5.6 h.
